# “Also recorded” adds a separate entry of the source.
# Legend:
# Type in all cases: cell-based, human
# [1] = system: H4 cells stably expressing LC3-GFP; experiment: LC3-GFP autophagosome translocation image-based assay; settings: for autophagy as measured by LC3-GFP translocation: H4 LC3-GFP cells grown in serum-free medium, cytokine 24 hours; for autophagy (autophagosome associated LC3-GFP): H4 LC3-GFP cells in defined medium
# Procedure: (§1) H4 human neuroblastoma cells were cultured under standard tissue culture conditions in DMEM media supplemented with 10% normal calf serum, penicillin/streptomycin, sodium pyruvate (Invitrogen) and, where appropriate, 0.4-1.2 mg/mL G418. LC3-GFP and FYVE-dsRed H4 cells were generated as described in Zhang et al., PNAS, 102, 15545-15550 (2007). To create a stable line expressing Lamp1, H4 cells were transfected with Lamp1-RFP plasmid using TransIT LT1 reagent (Minis), followed by selection with 0.4 mg/mL G418. Bcl-2 expressing cell lines were created by infecting LC3-GFP and FYVE-dsRed H4 cells with pBabe-Bcl-2 retrovirus, followed by selection with […] puromycin.
# For the cytokine assays, cells were seeded at 0.5×10^5 in full medium in either 24-well (western) or 96-well (LC3-GFP quantification) plates. After 24 hours, cells were washed in PBS and serum-free OptiMEM medium (Invitrogen) was added along with the indicated growth factors and/or cytokines for an additional 24 hours. Growth factors and cytokines used include human TNFα (Cell Sciences), human LIF (GeneScript Corporation), human FGF2 (ProSpec), human IGF1 (ProSpec), human SDF1 (Prospec) and human CLCF1 (R&D Systems). To induce starvation, cells were cultured for 24 hours in full media, washed in PBS and cultured for additional 4 hours in HBSS bedia (Invitrogen). […]
# For high-throughput screens, cells were imaged on an automated CellWoRx microscope (Applied Precision) at 10× magnification using 2 wavelengths (350 nm to detect Hoechst, 488 nm to detect LC3-GFP) for the primary screens and 3 wavelengths (350 nm, 488 nm and 550 nm to detect Lamp1-RFP or FYVE-dsRed) for the secondary screens. All images were quantified using VHSscan and VHSview image analysis software (Cellomics). Total cell number, total LC3-GFP intensity/cell as well as number, area and intensity of LC3-GFP positive autophagosomes/cell were scored. All dead and mitotic cells were excluded from analysis based on nuclear intensity. The final autophagy score for each well was obtained by multiplying the total autophagosome intensity/cell by the number of autophagosomes/cell and dividing by the average cell intensity. This formula was empirically determined to accurately measure LC3-GFP translocation from cytosol into autophagosomes as reflected by consistently significant z-scores and p-values when using siRNAs against mTOR and Atg5 controls. FYVE-dsRed and Lamp1-RFP scores were obtained in a manner similar to LC3-GFP scores, except that for Lamp1-RFP, which measures total accumulation of the reporter rather than its translocation, division by the average cell intensity was omitted.
# For low-throughput follow-up analysis, cells were grown on glass cover slips. Following fixation in 4% paraformaldehyde and counterstaining with Hoechst, cover slips were mounted in 50% glycerol, 0.1% n-propyl gallate/PBS. Cells were imaged at 40× magnification on a Nikon Eclipse E800 microscope. Cell numbers, cell area and intensity, as well as autophagosome number and intensity, were quantified using Metamorph software. Autophagy was scored as number of autophagosomes per cell.
# Human neuroblastoma H4 cells stably expressing the LC3-GFP reporter were used to identify genes involved in the regulation of autophagy in mammals. […] When autophagy is induced in these cells, LC3-GFP is recruited from the cytosol and can be visualized in a punctate pattern corresponding to autophagosomes. In order to validate the system, cells were transfected with siRNA against either the essential autophagy mediator ATG5 or against mTOR, a suppressor of starvation-induced autophagy. Following 72 hours of incubation under normal nutritional conditions, […].
# H4 cells [2] = experiment: Western blot of autophagy markers (LC3, p62); settings: for autophagy by western blot (LC3II accumulation, LC3 II/tubulin): serum-free medium, 100 ng/mL IGF1, 50 ng/mL FGF2, LIF or CLCF1, 10 μg/mL E64d, with or without 50 nM rapamycin, H4, HEK293, HeLa, MCF7
# Procedure: For the cytokine assays, cells were seeded at 0.5×10^5 in full medium in either 24-well (western) or 96-well (LC3-GFP quantification) plates. After 24 hours, cells were washed in PBS and serum-free OptiMEM medium (Invitrogen) was added along with the indicated growth factors and/or cytokines for an additional 24 hours. Growth factors and cytokines used include human TNFα (Cell Sciences), human LIF (GeneScript Corporation), human FGF2 (ProSpec), human IGF1 (ProSpec), human SDF1 (Prospec) and human CLCF1 (R&D Systems). To induce starvation, cells were cultured for 24 hours in full media, washed in PBS and cultured for additional 4 hours in HBSS bedia (Invitrogen).
# For western blot analysis, lysosomal protease inhibitor E64d (Sigma) was added at a concentration of 10 μg/mL for the last 8-12 hours before cell lysis.
# (§2) For western blots, cells were lysed in Lammeli sample buffer, resolved on a 10-12% SDS-PAGE gel and transferred to PVDF membrane. The following antibodies were used: LC3 (Novus), p62 (Pharmigen), phospho-S6K (Thr389), phospho-Akt (Ser473), phospho-Stat3 (Tyr705), RelA, Sod1, phospho-PTEN (Ser380/Thr382/383) (all Cell Signaling), Bcl-2 (Santa Cruz), all at 1:1000, phospho-S6 (Ser235/236) (Cell Signaling) and phospho-ERK 1/2 (Sigma) at 1:2000, tubulin (Sigma) at 1:5000. Where indicated, blots were quantified using NIH ImageJ64 software.
# H4 cells [3] = experiment: Western blot of signalling protein levels and phosphorylation; settings: for activating phosphorylation of Stat3: 50 ng/mL LIF or CLCF1
# Excerpt: as §2
# GRP78 and GRP94 = experiment: In-cell-western of KDEL (GRP78/GRP94) expression (ER stress); settings: H4 cells treated with tunicamycin
# Procedure: For quantitative analysis of mTORC1 signaling and induction of endoplasmic reticulum stress, in-cell-western analysis of rpS6 phosphorylation and KDEL (GRP78/GRP94) expression (‘KDEL’ disclosed as SEQ ID NO: 2), respectively, were performed. H4 cells were cultured in 384-well plates and fixed and counterstained as described for the LC3-GFP assay. Following imaging, the cells were permeabilized in PBS containing 0.2% Tx-100 and stained with Alexa-680 NETS-ester, a non-specific lysine reactive probe used to measure relative cell number, at 20 ng/mL for 15 minutes. Subsequently, the cells were washed with PBS containing 0.2% Tx-100 and incubated for 30 minutes in blocking buffer (LiCOR Blocking Buffer diluted 1:1 with PBS+0.2% Tx-100). Cells were then incubated overnight with a rabbit-anti-rpS6 phospho-235/236 (Cell Signaling Technologies), or mouse-anti-KDEL (Stressgen) antibody (‘KDEL’ disclosed as SEQ ID NO: 2) diluted 1:1000 in blocking buffer. […] The intensities of both, the rpS6 phospho-235/236 or KDEL staining (‘KDEL’ disclosed as SEQ ID NO: 2), and of NHS-ester staining were integrated, and the normalized phospho-S6 or KDEL score (‘KDEL’ disclosed as SEQ ID NO: 2) were calculated by dividing phospho-rpS6 or KDEL intensity by NHS-ester intensity (‘KDEL’ disclosed as SEQ ID NO: 2). […]
# type III PI3 kinase = experiment: FYVE-dsRed reporter assay of PtdIns3P levels
# Procedure: as §1
# For secondary screens, a siRNA library was used in which the 4 siRNAs of each siRNA pool were separated into individual wells. […]
# For high-throughput screens, cells were imaged on an automated CellWoRx microscope (Applied Precision) at 10× magnification using 2 wavelengths (350 nm to detect Hoechst, 488 nm to detect LC3-GFP) for the primary screens and 3 wavelengths (350 nm, 488 nm and 550 nm to detect Lamp1-RFP or FYVE-dsRed) for the secondary screens. All images were quantified using VHSscan and VHSview image analysis software (Cellomics). Total cell number, total LC3-GFP intensity/cell as well as number, area and intensity of LC3-GFP positive autophagosomes/cell were scored. […]
# [4] = 100 ng/mL IGF1 plus Akt inhibitor VIII
molecule,measurement,setting,value
SDF1: human SDF1 (Prospec); chemokine SDF1 (CXCL12),autophagy as measured by LC3-GFP translocation,[1],significant down-regulation of autophagy
FGF2: human FGF2 (ProSpec); fibroblast growth factor 2 (basic),autophagy as measured by LC3-GFP translocation,[1],significant down-regulation of autophagy
same,"autophagy by western blot (LC3II accumulation, LC3 II/tubulin)",H4 cells [2],suppress autophagy in the absence and presence of rapamycin
same,level of phospho-ERK1/2 and phospho-RSK,"H4 cells [3]; H4 cells, serum-free media, 50 ng/mL FGF2",increased level
tunicamycin [reference compound],autophagy,[1]; H4 cells treated with tunicamycin,increase in autophagy
same,levels of GRP78 and GRP94,GRP78 and GRP94,dose-dependent up-regulation
LIF: human LIF (GeneScript Corporation); leukemia inhibitory factor,autophagy as measured by LC3-GFP translocation,[1],significant down-regulation of autophagy
same,"autophagy by western blot (LC3II accumulation, LC3 II/tubulin)",H4 cells [2],suppress autophagy in the absence and presence of rapamycin
same,activating phosphorylation of Stat3,H4 cells [3],increased activating phosphorylation of Stat3
TNFα,autophagy (autophagosome associated LC3-GFP),[1]; higher doses of TNFα,up-regulation of autophagy
same,autophagy (autophagosome associated LC3-GFP),[1]; low doses of TNFα,down-regulation of autophagy
same,p62 level by western blot,"H4 cells [2]; low levels of TNFα (5 ng/ml), nutrient deprivation",significant accumulation of p62
"O=c1[nH]c2ccccc2n1C1CCN(Cc2ccc(-c3nc4cc5[nH]cnc5cc4nc3-c3ccccc3)cc2)CC1 [Akt inhibitor VIII, reference compound]",effect on inhibition of autophagy by IGF1,H4 cells [2]; [4],prevented inhibition of autophagy
same,phosphorylation of Foxo3a and S6 kinase,H4 cells [3]; [4],attenuated phosphorylation
"N#CC(=C(/N)Sc1ccccc1N)/C(C#N)=C(/N)Sc1ccccc1N [UO126, reference compound]",effect on inhibition of autophagy by FGF2 (LC3 western),"H4 cells [2]; H4 cells, serum-free media, 50 ng/mL FGF2, 10 μg/mL E64d, UO126 pre-treatment",attenuated inhibition of autophagy; also recorded: prevented
"Cn1cnc(=N)c2[nH]cnc21 [3MA, reference compound]",effect on induction of autophagy in response to Aβ,"[1]; H4 GFP-LC3 cells, 3MA",attenuate induction of autophagy
same,effect on Aβ-induced accumulation of PtdIns3P,"type III PI3 kinase; 3MA 10 mM, 8 hours prior to fixation",suppressed
IGF1: human IGF1 (ProSpec); insulin-like growth factor 1,autophagy as measured by LC3-GFP translocation,[1],significant down-regulation of autophagy
same,"autophagy by western blot (LC3II accumulation, LC3 II/tubulin)",H4 cells [2],suppress autophagy in the absence and presence of rapamycin
same,phosphorylation of Akt and Foxo3a,"H4 cells [3]; IGF-1 treatment, absence and presence of rapamycin",increased
"CC(=O)N[C@@H](CS)C(=O)O [NAC, N-acetyl-L-cysteine, reference compound]",effect on induction of autophagy caused by knock-down of Sod1,"[1]; H4 LC3-GFP cells, 2.5 mM NAC",significantly attenuated
same,effect on elevated induction of autophagy in response to starvation,"[1]; RelA deficient H4 cells, 2.5 mM NAC",attenuated
same,effect on Aβ-induced accumulation of PtdIns3P,type III PI3 kinase; with antioxidant NAC,suppressed
"CLCF1: human CLCF1 (R&D Systems); cardiotrophin-like cytokine factor 1 (protein, UniProt Q9UBD9 28-225, looked up) Cardiotrophin-like cytokine …: LNRTGDPGPGPSIQKTYDLTRYLEHQLRSLAGTYLNYLGPPFNEPDFNPPRLGAETLPRATVDLEVWRSLNDKLRLTQNYEAYSHLLCYLRGLNRQAATAELRRSLAHFCTSLQGLLGSIAGVMAALGYPLPQPLPGTEPTWTPGPAHSDFLQKMDDFWLLKELQTWLWRSAKDFNRLKKKMQPPAAAVTLHLGAHGF",autophagy as measured by LC3-GFP translocation,[1],significant down-regulation of autophagy
same,"autophagy by western blot (LC3II accumulation, LC3 II/tubulin)",H4 cells [2],suppress autophagy in the absence and presence of rapamycin
same,activating phosphorylation of Stat3,H4 cells [3],increased activating phosphorylation of Stat3

# — patent US20160194631A1, “Methods for Modulation of Autophagy Through the Modulation of Autophagy-Inhibiting Gene Products” (Harvard Medical School, priority 2009, published 2016)
